In patent US8846788B2, “Polyacetal resin composition, resin molded article, and method and agent for improving polyacetal resin raw material composition” (Mitsubishi Engineering-Plastics Corporation, priority 2008, dated 2014):

experiment: Solubility relative to 100 g of water at 20° C.; type: physicochemical; conditions: per 100 g of water

Compound | solubility relative to 100 g of water [g]
NNC(=O)CCCCCCCCCCCCCCCCCCC(=O)NN [1,18-octadecane dicarbohydrazide] | ≤ 0.1
NNC(=O)c1ccc(C(=O)NN)cc1 [Dihydrazide compound-1, terephthalic acid dihydrazide] | ≤ 0.01
NNC(=O)CCCCCCCCCCC(=O)NN [Dihydrazide compound-2, 1,10-dodecane diacid dihydrazide] | ≤ 0.01
NNC(=O)CCCCC(=O)NN [Dihydrazide compound-3, adipic acid dihydrazide, reference compound] | 9.1
NNC(=O)C(=O)NN [oxalic acid dihydrazide] | ≤ 0.2

experiment: Vapor pressure at 20° C.; type: physicochemical; conditions: not given

Compound | vapor pressure
CC(C)(c1ccccc1)c1cc(-n2nc3ccccc3n2)c(O)c(C(C)(C)c2ccccc2)c1 [Tinuvin 234, 2-(2H-benzotriazol-2-yl)-4,6-bis(1-methyl-1-phenylethyl)phenol] | 2.0×10^−10 Pa
